This note sets out measurements from article PMC5853648 (Biochemistry, 2017).

Each structure is given as a SMILES string.

For orientation: IC50 means the concentration at which inhibition is half-maximal. A lower IC50 goes with greater potency in that assay. The Kd is the equilibrium constant for the complex coming apart. Low values mean a tighter complex, high ones a looser complex.

For assay [1], the target named is T1, CidC (Staphylococcus aureus, UniProt Q6PST7).
T1 sequence (Q6PST7 2-579): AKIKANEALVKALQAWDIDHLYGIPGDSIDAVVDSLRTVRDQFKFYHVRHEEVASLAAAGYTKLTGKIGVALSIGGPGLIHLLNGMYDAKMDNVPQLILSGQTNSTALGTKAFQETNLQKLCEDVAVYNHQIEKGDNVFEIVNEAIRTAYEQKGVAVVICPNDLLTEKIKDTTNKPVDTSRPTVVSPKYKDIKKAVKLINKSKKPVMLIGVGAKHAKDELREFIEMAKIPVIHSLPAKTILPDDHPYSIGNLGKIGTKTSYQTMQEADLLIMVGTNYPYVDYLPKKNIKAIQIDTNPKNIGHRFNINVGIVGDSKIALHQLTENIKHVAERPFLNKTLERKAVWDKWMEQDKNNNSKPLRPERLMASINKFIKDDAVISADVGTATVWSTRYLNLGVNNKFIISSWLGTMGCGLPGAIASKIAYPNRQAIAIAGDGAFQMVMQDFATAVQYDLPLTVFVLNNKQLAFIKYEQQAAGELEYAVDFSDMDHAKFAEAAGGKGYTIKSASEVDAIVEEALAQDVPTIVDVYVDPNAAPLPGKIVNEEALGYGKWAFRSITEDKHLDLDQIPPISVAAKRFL
Briefly: ferricyanide reduction assay, absorbance […] nm. Format: biochemical.

For assay [2], the target named is T1, CidC. Briefly: tryptophan fluorescence quenching titration. Format: binding.

In turn, `O=C(O)CC(O)(CC(=O)O)C(=O)O` [citrate] returned a half-inhibitory concentration (IC50) on CidC [1] of 10 mM. Turning to `Cc1ncc(C[n+]2csc(CCO[P@](=O)(O)OP(=O)(O)O)c2C)c(N)n1` [TPP], the Kd on CidC [2] came to 0.0003 mM.
